From ChEMBL document CHEMBL4028831, “Improvement of hERG-ROMK index of spirocyclic ROMK inhibitors through scaffold optimization and incorporation of novel pharmacophores” (Bioorg Med Chem Lett, 2017)
Activity calls are given as the source filed them. The calls are words filed in the database; no cut-off is given here.

What was measured:
[1] = tested on: Rattus norvegicus; experiment: Antihypertensive activity in rat spontaneous hypertensive model assessed as induction of diuresis at 3 mg/kg, po qd measured after 3 days; assay type: functional, organism-based
[2] = Clearance in Beagle dog at 1 mg/kg, iv; assay type: ADME, organism-based, Canis lupus familiaris; conditions: in vivo
[3] = tested on: Rattus norvegicus; experiment: Antihypertensive activity in rat spontaneous hypertensive model assessed as induction of kaliuresis at 3 mg/kg, po qd measured after 3 days; assay type: functional, organism-based
[4] = target: T1, Cytochrome P450 3A4 (Homo sapiens, UniProt P08684); experiment: Inhibition of CYP3A4 (unknown origin); assay type: ADME
[5] = Unbound fraction in guinea pig plasma at 10 mg/kg administered as iv infusion; assay type: ADME, organism-based, Cavia porcellus; conditions: in vivo
[6] = target: Cytochrome P450 2D6 (Homo sapiens, UniProt P10635); experiment: Inhibition of CYP2D6 (unknown origin); assay type: ADME
[7] = target: T2, Nuclear receptor subfamily 1 group I member 2 (Homo sapiens, UniProt O75469); experiment: Activity at PXR (unknown origin) assessed as CYP induction
T2 sequence (O75469 whole entry): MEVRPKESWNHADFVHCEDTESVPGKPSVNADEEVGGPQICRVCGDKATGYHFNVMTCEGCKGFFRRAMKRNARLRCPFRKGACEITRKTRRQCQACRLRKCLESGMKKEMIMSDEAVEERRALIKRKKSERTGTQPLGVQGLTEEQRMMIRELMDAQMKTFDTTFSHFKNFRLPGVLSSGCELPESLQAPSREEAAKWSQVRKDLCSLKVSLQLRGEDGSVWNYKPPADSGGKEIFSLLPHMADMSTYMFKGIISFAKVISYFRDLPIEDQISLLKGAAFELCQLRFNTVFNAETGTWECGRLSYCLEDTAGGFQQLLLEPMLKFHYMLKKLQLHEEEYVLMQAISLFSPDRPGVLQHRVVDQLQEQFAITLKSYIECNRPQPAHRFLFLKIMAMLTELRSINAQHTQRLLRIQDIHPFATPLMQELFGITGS

[8] = target: T1, Cytochrome P450 3A4; experiment: Time dependent inhibition of CYP3A4 (unknown origin) in absence of NADPH; assay type: ADME
[9] = tested on: Cavia porcellus; experiment: Cardiotoxicity in anesthetized cardiovascular guinea pig model assessed as prolongation of QTc interval at 10 mg/kg administered as iv infusion relative to control; assay type: toxicity, organism-based; conditions: in vivo

T1 sequence (P08684 whole entry, the tested form may be a part): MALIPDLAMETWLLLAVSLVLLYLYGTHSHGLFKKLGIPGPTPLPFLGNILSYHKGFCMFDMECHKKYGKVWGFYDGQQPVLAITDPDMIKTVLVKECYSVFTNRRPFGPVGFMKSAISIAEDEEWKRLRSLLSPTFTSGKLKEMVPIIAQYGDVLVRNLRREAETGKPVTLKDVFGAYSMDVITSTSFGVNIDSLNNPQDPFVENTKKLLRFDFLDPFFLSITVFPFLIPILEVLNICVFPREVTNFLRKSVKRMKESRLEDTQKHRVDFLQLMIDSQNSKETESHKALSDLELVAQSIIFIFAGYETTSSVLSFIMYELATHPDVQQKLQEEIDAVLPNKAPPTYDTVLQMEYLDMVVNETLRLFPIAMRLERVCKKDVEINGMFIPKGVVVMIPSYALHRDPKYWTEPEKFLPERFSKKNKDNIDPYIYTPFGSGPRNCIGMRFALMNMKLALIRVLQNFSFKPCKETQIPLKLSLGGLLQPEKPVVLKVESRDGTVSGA
Chain of Cytochrome P450 2D6 (P10635 whole entry): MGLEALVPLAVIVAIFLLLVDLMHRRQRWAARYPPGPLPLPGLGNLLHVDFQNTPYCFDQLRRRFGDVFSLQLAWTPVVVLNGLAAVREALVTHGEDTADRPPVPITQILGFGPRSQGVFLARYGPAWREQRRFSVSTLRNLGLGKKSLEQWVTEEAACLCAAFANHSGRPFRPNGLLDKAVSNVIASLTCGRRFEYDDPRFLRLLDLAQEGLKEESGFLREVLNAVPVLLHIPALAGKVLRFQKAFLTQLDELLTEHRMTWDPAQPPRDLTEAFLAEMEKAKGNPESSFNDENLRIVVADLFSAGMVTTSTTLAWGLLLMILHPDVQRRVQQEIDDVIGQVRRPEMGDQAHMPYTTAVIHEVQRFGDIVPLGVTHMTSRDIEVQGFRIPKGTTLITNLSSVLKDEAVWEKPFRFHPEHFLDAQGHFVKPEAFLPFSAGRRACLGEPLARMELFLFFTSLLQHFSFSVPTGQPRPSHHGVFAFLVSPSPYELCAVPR

- clearance [2]: 18.3 mL/min/kg
- IC50 [4]: > 50 µM
- Cp(f) [5]: 22.5 µM
- IC50 [6]: > 50 µM
- IC50 [7]: > 30 µM
- IC50 [8]: > 50 µM
SMILES: Cc1c([C@@H](O)CN2CCC3(CC2)CCN(c2ccc(=O)n(C)n2)C3=O)ccc2c1COC2=O
- Activity [1]: Active
- Activity [3]: inactive
- Activity [9]: 16%
